In the supplement of paper PMC12076712:

Assays:
Assay in all cases: pIC50, kinobeads binding competition
Details in all cases: cell material: Jurkat lysate
ITK = molecular target: T1, ITK (UniProt Q08881)
T1 sequence (whole entry): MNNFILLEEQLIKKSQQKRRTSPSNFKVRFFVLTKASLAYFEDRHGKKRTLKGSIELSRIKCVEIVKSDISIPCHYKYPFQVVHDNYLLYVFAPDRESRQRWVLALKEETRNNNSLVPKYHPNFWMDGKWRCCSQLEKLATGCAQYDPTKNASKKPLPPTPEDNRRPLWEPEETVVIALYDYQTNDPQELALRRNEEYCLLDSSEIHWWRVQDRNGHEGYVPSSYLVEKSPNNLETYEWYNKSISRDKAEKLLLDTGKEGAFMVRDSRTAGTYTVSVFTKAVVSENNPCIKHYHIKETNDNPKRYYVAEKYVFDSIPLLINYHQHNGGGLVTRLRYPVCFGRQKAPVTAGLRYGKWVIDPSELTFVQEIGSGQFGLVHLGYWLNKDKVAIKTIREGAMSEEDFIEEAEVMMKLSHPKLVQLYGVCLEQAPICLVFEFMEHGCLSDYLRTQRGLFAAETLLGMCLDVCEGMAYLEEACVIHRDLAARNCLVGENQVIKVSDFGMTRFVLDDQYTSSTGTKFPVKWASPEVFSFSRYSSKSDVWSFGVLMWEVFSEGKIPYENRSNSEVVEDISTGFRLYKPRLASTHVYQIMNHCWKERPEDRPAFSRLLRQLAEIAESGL

ABL2 = ABL2 (UniProt P42684)
ROCK2 = ROCK2 (UniProt O75116)
UniProt Q13163 = molecular target: T2, UniProt Q13163
T2 sequence (whole entry): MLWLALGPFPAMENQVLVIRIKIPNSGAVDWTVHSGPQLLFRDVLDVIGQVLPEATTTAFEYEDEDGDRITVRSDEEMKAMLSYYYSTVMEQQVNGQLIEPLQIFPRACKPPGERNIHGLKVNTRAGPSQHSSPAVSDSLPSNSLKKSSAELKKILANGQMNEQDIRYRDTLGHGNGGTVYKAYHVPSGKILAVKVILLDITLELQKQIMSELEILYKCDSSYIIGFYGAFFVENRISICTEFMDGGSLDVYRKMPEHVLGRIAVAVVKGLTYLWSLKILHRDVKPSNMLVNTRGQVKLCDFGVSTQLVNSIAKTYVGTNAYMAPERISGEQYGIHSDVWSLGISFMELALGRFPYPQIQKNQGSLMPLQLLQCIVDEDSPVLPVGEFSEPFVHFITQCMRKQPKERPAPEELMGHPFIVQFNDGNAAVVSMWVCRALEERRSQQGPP

UniProt Q99683 = molecular target: T3, UniProt Q99683
T3 sequence (whole entry): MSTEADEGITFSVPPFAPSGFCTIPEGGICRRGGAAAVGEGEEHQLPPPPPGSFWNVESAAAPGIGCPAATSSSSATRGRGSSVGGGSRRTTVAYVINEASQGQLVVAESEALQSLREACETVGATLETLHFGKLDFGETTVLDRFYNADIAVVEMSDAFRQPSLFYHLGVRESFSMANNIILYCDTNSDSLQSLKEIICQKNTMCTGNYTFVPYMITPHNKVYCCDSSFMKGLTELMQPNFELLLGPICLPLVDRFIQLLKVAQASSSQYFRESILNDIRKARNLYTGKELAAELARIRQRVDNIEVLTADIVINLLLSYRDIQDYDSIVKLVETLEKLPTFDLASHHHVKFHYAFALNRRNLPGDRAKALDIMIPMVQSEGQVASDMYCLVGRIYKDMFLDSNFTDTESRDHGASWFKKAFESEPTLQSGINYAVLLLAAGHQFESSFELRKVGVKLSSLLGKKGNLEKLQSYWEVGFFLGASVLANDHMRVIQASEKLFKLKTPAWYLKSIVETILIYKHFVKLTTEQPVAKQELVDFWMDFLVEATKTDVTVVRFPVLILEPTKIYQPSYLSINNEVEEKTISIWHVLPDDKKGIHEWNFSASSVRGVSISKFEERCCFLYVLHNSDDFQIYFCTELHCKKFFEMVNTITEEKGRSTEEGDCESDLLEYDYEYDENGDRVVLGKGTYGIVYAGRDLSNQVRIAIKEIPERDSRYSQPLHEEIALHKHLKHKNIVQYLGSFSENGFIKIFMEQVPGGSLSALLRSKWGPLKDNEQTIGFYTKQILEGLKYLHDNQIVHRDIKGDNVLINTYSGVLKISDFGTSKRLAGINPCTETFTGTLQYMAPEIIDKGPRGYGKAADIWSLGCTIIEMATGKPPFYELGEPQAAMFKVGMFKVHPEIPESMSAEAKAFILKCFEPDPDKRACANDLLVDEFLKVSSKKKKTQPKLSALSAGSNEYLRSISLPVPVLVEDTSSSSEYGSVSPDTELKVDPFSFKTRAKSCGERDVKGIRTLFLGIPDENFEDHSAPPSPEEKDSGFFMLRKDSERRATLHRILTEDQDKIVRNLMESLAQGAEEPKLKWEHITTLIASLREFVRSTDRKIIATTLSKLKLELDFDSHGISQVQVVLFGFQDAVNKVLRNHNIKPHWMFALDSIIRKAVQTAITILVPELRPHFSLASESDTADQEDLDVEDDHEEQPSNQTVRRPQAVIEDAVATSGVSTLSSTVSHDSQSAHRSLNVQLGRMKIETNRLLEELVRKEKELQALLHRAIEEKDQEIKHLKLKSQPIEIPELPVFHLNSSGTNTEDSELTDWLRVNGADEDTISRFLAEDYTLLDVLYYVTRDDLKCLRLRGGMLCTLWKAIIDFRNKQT

CSK = CSK (UniProt P41240)
PDIK1L = PDIK1L (UniProt Q8N165)
UniProt Q8N4C8 = molecular target: UniProt Q8N4C8
UniProt Q92918 = molecular target: UniProt Q92918
Chain of UniProt Q92918 (Q92918 whole entry, looked up): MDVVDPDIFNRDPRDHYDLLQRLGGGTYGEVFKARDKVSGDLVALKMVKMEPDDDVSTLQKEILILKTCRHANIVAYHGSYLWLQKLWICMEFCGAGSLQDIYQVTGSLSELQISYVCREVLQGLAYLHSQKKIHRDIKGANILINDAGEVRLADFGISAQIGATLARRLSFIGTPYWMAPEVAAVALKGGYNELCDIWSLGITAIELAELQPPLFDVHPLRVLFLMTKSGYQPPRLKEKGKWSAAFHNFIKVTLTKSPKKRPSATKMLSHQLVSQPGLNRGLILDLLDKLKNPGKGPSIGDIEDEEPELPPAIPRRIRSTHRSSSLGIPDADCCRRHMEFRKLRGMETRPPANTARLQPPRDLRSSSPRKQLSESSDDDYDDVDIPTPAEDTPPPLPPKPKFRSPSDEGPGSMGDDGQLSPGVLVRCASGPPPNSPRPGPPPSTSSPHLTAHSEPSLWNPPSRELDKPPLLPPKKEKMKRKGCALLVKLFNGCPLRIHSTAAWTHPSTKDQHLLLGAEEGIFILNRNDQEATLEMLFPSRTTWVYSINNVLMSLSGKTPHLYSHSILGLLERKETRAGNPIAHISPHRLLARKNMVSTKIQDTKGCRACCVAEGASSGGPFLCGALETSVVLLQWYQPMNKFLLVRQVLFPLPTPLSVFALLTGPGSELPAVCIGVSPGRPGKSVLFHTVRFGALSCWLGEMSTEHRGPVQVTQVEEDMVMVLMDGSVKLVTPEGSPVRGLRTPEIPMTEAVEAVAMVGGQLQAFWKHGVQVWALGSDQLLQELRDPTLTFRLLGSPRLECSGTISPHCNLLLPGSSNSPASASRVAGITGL

Chain of PDIK1L (Q8N165 whole entry): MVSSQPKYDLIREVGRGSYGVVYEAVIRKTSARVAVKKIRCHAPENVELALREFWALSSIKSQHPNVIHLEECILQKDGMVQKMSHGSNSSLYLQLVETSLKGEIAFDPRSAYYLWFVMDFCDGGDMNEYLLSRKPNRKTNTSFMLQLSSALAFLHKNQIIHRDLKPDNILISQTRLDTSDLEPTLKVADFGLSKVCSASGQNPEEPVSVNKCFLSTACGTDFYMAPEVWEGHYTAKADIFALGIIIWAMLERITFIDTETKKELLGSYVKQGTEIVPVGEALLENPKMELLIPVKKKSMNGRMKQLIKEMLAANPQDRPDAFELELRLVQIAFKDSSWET
Chain of ABL2 (P42684 whole entry): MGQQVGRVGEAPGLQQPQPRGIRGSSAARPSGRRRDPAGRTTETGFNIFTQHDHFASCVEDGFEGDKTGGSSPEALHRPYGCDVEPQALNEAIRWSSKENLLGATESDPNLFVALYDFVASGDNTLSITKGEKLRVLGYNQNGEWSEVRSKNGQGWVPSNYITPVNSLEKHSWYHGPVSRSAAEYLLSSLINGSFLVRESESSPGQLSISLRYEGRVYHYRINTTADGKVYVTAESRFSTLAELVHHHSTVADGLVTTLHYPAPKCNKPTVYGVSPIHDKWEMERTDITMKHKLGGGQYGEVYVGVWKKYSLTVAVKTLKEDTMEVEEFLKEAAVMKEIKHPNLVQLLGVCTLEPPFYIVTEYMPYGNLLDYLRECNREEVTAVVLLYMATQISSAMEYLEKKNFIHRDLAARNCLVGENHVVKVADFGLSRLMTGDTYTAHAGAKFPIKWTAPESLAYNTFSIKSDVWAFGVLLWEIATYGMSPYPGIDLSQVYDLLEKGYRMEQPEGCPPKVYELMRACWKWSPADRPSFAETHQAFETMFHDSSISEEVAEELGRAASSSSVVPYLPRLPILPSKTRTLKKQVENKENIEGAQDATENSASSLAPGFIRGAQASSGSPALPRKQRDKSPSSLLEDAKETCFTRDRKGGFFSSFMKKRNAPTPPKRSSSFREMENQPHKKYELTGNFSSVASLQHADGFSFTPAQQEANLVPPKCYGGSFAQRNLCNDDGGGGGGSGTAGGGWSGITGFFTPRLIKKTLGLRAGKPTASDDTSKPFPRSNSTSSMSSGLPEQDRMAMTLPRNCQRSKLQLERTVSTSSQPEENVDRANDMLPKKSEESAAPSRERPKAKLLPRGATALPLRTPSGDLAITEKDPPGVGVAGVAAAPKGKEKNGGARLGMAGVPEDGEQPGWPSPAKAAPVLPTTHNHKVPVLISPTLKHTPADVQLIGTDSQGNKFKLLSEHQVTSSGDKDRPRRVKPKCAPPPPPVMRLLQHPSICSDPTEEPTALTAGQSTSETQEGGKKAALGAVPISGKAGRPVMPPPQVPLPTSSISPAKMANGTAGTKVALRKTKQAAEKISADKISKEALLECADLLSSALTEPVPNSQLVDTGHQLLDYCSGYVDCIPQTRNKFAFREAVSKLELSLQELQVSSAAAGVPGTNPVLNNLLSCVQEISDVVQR
Chain of UniProt Q8N4C8 (Q8N4C8 whole entry, looked up): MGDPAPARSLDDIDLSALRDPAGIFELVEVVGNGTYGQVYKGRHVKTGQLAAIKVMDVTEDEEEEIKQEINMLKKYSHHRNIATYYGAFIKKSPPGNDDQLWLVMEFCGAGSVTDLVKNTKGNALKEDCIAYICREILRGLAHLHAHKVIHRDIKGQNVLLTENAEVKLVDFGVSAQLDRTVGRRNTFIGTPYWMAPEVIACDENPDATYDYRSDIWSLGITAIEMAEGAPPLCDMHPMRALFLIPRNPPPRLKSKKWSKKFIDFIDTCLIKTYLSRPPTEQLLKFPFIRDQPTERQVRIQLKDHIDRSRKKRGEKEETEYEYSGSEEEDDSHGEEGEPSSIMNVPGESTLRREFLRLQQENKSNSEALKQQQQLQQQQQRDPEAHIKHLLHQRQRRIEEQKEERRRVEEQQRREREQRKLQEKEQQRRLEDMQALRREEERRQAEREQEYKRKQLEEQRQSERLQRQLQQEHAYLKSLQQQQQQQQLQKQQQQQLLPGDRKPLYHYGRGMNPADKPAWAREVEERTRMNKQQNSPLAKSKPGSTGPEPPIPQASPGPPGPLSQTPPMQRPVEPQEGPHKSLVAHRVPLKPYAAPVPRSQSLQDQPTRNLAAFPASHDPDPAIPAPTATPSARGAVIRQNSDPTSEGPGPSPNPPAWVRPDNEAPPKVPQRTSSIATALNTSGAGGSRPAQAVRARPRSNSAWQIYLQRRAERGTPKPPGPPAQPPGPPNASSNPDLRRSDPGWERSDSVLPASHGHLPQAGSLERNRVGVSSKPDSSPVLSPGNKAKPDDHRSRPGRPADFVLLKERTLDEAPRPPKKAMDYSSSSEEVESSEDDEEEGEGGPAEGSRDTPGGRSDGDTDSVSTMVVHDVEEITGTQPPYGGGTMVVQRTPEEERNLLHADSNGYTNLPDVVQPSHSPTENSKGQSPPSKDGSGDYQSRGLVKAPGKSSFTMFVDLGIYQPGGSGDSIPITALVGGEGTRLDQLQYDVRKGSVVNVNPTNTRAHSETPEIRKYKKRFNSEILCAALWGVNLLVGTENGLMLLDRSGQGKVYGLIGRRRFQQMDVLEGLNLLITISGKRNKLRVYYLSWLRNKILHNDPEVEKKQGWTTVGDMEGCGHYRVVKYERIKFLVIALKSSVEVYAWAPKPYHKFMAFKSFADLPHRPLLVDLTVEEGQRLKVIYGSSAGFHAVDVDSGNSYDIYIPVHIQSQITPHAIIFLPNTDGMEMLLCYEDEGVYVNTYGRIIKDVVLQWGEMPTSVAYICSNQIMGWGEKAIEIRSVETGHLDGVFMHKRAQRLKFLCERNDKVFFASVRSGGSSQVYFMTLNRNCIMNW
Chain of ROCK2 (O75116 whole entry, looked up): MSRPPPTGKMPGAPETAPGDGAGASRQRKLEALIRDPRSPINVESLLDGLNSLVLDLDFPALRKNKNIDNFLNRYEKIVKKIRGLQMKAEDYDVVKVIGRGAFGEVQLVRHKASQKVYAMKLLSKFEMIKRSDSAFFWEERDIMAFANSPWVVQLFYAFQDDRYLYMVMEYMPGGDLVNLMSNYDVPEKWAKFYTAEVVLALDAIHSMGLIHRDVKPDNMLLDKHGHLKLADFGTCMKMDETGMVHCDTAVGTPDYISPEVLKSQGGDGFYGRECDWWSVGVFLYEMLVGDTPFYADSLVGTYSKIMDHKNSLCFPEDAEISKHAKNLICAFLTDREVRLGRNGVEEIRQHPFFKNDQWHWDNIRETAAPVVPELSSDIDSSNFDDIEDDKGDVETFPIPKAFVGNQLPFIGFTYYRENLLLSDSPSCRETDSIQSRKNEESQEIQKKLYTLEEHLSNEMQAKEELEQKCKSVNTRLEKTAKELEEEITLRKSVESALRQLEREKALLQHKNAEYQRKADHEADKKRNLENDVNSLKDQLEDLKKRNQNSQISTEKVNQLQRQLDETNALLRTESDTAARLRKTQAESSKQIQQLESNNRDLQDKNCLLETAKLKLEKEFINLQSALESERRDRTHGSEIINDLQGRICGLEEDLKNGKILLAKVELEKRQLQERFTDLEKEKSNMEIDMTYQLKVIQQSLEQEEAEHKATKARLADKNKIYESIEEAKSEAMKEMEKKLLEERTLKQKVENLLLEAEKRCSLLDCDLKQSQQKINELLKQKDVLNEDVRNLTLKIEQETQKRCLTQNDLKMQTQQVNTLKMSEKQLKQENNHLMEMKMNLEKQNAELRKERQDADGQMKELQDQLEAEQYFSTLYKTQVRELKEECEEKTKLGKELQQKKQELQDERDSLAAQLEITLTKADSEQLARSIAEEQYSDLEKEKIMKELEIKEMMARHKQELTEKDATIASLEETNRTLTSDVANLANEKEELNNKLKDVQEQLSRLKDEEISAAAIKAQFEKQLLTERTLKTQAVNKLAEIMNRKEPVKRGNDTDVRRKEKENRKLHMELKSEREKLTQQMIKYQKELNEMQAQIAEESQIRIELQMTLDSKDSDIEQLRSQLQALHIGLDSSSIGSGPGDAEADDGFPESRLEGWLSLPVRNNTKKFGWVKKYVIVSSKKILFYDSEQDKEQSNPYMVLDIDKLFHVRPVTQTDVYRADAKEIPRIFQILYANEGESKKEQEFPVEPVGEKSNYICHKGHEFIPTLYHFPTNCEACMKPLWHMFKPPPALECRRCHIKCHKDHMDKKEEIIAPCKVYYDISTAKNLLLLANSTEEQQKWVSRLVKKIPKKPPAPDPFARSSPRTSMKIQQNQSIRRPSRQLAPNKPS

pIC50 (ITK): < 4.52
pIC50 (ABL2): < 4.52
pIC50 (ROCK2): < 4.52
pIC50 (UniProt Q13163): < 4.52
pIC50 (UniProt Q99683): < 4.52
pIC50 (CSK): < 4.52
pIC50 (PDIK1L): < 4.52
pIC50 (UniProt Q8N4C8): < 4.52
pIC50 (UniProt Q92918): < 4.52
Compound: CCc1cnn2c(NCc3ccc[n+]([O-])c3)cc(N3CCCC[C@H]3CCO)nc12 [dinaciclib]
